Experimental data reported in US20130004959A1, “SCREENING DEVICE CONTAINING NANOG PROMOTER, SOX2 PROMOTER, LIN 28 PROMOTER, OCT4 PROMOTER AND LUCIFERASE GENE AND SCREENING METHOD THEREOF” (NATIONAL CENTRAL UNIVERSITY, priority 2011, published 2013).

Tested on: Nanog promoter, Sox2 promoter, Lin28 promoter, Oct4 promoter
Experiment: Luciferase assay in the screening device (cells stably carrying pStable promoter-Luc reporter plasmids)
Format: cell-based, mouse
Conditions: 2 mM VPA, reacted with cells for 24 hours, "24 hr cell"; C2C12 / P19 stable clones
Experimental: The screening is performed after the cells that express various promoters stably being prepared. […] The reporter plasmids whose backbone is constructed by the method mentioned above are transinfected individually into different dishes of host cells. After the reporter plasmids have been introduced into C2C12 or P19 cells, use G418 (Geneticin), a selective antibiotic for Neomycin resistance gene, to screen positive clones because pStable clones carry Neomycin resistance gene. After cell culture, transinfection, stable clone selection, and cells growing as colonies, stable clones in which various different promoters are expressed are obtained. In an embodiment of the present invention, pStable-Nanog-p-Luc plasmid, pStable-Sox2-p-Luc plasmid, pStable-Lin28-p-Luc plasmid and pStable-Oct4-p-Luc plasmid are introduced into both a C2C12 cell line and a P19 cell line. […] The C2C12 cell and P19 cell are cultured in an incubator under normal growth conditions (typically at 37° C., 5% CO2, and saturated humidity). Culture conditions of C2C12 cells and P19 cells are listed in the following list one: After the transfection processes, perform stable clone selection. The transfected cells are cultured in a culture medium containing 800 ug/ml G418. […] In an embodiment of the present invention, harvest cells after cells being reacted with 2 mM VPA for 24 hours and measure luminescence expression of cells. […]

For CCCC(CCC)C(=O)O [VPA, valporic acid], the “level of Luciferase (luminescence expression)” value was “higher level of Luciferase”.
